This is an account of results in paper PMC11513923, “Discovery of ZLC491 as a Potent, Selective, and Orally Bioavailable CDK12/13 PROTAC Degrader” (Journal of Medicinal Chemistry, 2024).

In one assay the target is T1, CDK13 (Homo sapiens, UniProt Q14004).
T1 construct: Immunoblotting of CDK12 and CDK13 in MDA-MB-231 cells treated with increasing concentrations of ZLC491 for 15 h; endogenous in cells; host or cells: MDA-MB-231
As to the kind of experiment: CDK13 degradation in MDA-MB-231 cells by immunoblotting.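 On Protein Degradation (%DMSO control, 0.3 μM) CDK13: percent of CDK13 protein degraded relative to DMSO control.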 The following applies: 0.3 μM; for Protein Degradation (%DMSO control, 0.3 μM) CDK13: MDA-MB-231 cells, 15 h, immunoblotting, normalized against α-tubulin; for Degradation rates of CDK13 at 0.3 μM: supplementary CSV. Format: cell-based. The protocol: (§1) The degradation efficiency of the new molecules was assessed by immunoblotting after treatment with the compounds at 0.3 μM in MD-MBA-231 cells for 15 h.
(§2) To further characterize the compound, we determined the half-degradation concentration (DC50) values of ZLC491 in MDA-MB-231 cells. […] We also treated MDA-MB-231 cells with 1 μM ZLC491 at various time points.
(§3) (A) Immunoblotting of CDK12 and CDK13 in MDA-MB-231 cells treated with increasing concentrations of ZLC491 for 15 h (left). Percent remaining CDK12 and CDK13 proteins were plotted for DC50 determination (right). Protein levels were quantified using ImageJ and normalized to corresponding α-tubulin, then plotted using Graphpad Prism 8.0. The data were representative of three independent experiments; (B) immunoblotting of CDK12 and CDK13 proteins in MDA-MB-231 cells treated with ZLC491 for various time points; immunoblotting of CDK12 and CDK13 in HCC38 (C) and MDA-MB-436 (D) cells treated with increasing concentrations of ZLC491 for 15 h. α-Tubulin was used as a loading control. TEXT PRINTED IN THE PICTURE: (A) ZLC491: MDA-MB-231: CDK12 DC50 = 0.032μM; MDA-MB-231: CDK13 DC50 = 0.028μM DOUBTS OF THE COPYIST ABOUT THIS PICTURE: ZLC491, CDK12 DC50: 0.032 read from small print, the digits 3 and 2 are uncertain / ZLC491, CDK13 DC50: 0.028 read from small print, the last digit may be 8, 6 or 3
(§4) Generally, the tested cells were washed by ice-cold PBS buffer (Gibco) and lysed with an SDS lysis buffer (62.5 mM Tris, 2% w/v SDS, 10 glycerol, 50 mM DTT, 0.01% w/v bromophenol blue) on ice, after which the protein lysate samples were collected to 1.5 mL microcentrifuge tubes and treated with ultrasonic for 10 s, following with a 100 °C incubation for 10 min and a 4 °C centrifugation of 12000 rpm for 10 min. An equal amount of protein was loaded to 4–8% Bis-Tris gels and underwent an SDS-PAGE electrophoresis at 55V for 30 min and 95V for 90 min. Proteins on gels were then transferred to a polyvinylidene difluoride (PVDF) membrane (Bio-Rad) with a wet electro transfer system (Bio-Rad). The PVDF membrane was cut into bands and incubated in a blocking reagent (5% defatted milk powder dissolved in TBST) at room temperature for 1–2 h. Incubate membrane and primary antibody (at the appropriate dilution and diluent as recommended in the product webpage) at 4 °C for 12–14 h, followed with three times washes by TBST. The washed membranes were incubated in a secondary antibody solution (HRP-linked antirabbit IgG or antimouse IgG (CST), 1:2000 diluted into TBST) at room temperature for 2 h. Membranes were photographed in Amersham Imager 800 system using StarSignal plus regent (GenStar) or Omni-ECL reagent (EpiZyme). Compounds MG132, MLN4924, Bafilomycin A1 and pomalidomide were purchased from MedChemExpress (MCE) LLC.
Background: Immunoblotting shows a protein as a band on a membrane.

The target of a further assay is CDK12 (Homo sapiens, UniProt Q9NYV4). As to the kind of experiment: CDK12 degradation in MDA-MB-231 cells by immunoblotting. The class given is cell-based. On the set-up: Immunoblotting of CDK12 and CDK13 in MDA-MB-231 cells treated with increasing concentrations of ZLC491 for 15 h; endogenous in cells; host or cells: MDA-MB-231. The settings on record: 0.3 μM; for Protein Degradation (%DMSO control, 0.3 μM) CDK12: MDA-MB-231 cells, 15 h, immunoblotting, normalized against α-tubulin; for Degradation rates of CDK12 at 0.3 μM: supplementary CSV. As for the experimental part:
as §1, §2, §3, §4

Chain of CDK12 (Q9NYV4 whole entry): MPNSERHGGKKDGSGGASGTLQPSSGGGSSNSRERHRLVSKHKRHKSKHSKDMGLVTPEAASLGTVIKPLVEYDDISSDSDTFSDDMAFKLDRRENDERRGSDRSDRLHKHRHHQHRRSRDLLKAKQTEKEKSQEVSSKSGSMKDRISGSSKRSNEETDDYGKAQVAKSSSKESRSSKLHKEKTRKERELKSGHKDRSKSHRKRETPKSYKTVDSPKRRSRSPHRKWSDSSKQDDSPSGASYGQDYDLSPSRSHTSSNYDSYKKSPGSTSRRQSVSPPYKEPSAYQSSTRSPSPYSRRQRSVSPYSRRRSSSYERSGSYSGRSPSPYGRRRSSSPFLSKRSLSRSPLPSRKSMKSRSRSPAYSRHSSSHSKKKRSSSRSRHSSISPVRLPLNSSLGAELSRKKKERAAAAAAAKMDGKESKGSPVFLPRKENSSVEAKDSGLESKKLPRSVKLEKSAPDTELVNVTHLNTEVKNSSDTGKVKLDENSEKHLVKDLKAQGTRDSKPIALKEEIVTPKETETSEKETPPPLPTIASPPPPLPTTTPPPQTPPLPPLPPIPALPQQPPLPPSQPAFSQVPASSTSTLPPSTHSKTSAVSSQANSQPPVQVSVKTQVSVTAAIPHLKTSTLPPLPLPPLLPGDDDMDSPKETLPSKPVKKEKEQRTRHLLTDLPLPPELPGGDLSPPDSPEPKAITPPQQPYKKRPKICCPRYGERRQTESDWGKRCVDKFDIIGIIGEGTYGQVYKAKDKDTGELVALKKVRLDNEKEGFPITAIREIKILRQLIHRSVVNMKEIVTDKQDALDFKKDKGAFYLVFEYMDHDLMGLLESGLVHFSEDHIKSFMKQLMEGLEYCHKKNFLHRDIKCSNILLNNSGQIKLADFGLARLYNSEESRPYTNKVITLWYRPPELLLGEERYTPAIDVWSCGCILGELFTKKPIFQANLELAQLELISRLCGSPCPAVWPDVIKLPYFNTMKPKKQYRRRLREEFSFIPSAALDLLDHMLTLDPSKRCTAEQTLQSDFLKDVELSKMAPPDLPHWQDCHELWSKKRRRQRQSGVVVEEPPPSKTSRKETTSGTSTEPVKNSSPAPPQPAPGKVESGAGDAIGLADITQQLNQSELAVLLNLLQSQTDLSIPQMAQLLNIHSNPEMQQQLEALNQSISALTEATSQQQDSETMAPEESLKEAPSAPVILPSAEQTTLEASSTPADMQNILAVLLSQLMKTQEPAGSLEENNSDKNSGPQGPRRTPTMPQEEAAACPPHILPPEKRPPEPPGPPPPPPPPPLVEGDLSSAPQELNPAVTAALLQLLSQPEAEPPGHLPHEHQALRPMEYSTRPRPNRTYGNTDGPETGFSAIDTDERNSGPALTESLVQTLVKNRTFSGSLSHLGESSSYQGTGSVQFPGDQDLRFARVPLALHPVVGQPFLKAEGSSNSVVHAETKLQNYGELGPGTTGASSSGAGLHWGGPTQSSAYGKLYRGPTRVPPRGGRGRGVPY
Chain of CDK12 (O75909 whole entry partner): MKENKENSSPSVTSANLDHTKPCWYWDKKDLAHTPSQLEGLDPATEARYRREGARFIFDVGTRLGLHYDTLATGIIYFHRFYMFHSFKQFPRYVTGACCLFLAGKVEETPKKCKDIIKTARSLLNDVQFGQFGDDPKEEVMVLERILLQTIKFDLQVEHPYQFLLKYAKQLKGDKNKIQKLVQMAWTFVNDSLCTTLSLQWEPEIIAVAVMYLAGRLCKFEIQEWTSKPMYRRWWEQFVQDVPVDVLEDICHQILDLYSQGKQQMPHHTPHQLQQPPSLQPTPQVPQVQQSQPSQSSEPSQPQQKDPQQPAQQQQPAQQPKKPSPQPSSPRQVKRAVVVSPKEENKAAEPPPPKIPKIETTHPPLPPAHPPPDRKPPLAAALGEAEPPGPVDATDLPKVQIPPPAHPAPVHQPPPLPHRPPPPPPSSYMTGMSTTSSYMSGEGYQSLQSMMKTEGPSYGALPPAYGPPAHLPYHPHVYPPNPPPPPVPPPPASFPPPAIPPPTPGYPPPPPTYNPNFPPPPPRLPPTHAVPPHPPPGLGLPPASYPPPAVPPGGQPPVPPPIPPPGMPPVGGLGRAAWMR
T1 sequence (Q14004 whole entry): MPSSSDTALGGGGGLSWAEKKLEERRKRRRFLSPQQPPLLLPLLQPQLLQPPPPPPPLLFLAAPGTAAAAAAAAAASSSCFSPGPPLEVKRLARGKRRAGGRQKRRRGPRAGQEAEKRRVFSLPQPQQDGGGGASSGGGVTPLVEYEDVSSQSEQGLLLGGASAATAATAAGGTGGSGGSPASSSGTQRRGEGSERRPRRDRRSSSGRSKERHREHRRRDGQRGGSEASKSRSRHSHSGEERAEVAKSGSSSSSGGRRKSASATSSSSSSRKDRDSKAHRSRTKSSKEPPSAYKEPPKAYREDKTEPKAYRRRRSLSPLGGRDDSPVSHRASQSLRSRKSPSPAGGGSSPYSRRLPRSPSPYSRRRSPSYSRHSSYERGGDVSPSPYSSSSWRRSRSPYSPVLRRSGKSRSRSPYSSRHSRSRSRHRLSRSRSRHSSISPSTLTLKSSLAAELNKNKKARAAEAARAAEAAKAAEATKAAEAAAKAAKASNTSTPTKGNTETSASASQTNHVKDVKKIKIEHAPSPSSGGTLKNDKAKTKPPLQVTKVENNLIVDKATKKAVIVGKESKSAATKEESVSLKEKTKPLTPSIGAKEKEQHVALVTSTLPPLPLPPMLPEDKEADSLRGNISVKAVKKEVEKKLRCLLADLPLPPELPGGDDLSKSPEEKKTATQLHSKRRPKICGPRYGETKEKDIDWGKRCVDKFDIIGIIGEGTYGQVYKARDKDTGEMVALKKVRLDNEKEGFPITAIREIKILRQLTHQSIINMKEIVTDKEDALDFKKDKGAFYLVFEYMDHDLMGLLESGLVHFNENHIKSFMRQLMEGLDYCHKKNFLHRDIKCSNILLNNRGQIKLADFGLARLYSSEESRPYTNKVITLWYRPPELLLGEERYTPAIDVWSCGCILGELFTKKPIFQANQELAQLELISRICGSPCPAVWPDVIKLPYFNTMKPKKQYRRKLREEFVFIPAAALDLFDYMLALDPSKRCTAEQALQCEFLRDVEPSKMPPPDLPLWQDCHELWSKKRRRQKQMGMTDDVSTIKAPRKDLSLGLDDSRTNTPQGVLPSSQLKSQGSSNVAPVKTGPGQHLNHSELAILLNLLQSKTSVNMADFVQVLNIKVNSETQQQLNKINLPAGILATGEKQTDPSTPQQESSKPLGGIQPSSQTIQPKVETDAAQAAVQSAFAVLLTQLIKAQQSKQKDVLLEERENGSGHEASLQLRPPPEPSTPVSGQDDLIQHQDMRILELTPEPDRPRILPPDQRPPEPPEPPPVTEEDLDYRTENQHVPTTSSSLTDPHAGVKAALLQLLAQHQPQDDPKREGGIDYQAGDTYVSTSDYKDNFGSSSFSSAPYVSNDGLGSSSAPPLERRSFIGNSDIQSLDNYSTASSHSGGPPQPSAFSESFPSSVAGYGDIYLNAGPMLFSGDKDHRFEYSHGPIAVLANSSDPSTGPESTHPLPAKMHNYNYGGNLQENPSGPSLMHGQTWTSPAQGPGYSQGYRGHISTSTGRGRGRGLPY
T1 sequence (O75909 whole entry partner): as the sequence (O75909 whole entry partner) above

Consider `N#Cc1ccc(N[C@H]2CC[C@H](N(C(=O)NCc3ccccc3)c3ccc(N4CCN(C[C@@H]5CCN(c6ccc7c(c6)C(=O)N(C6CCC(=O)NC6=O)C7=O)C5)CC4)cc3)CC2)nc1` (stereo partly drawn) [4e, 3-Benzyl-1-((1r,4s)-4-((5-cyanopyridin-2-yl)amino)cyclohexyl)-1-(4-(4-(((3S)-1-(2-(2,6-dioxopiperidin-3-yl)-1,3-dioxoisoindolin-5-yl)pyrrolidin-3-yl)methyl)piperazin-1-yl)phenyl)urea], for which, on CDK13, the “Protein Degradation (%DMSO control, 0.3 μM) CDK13” value is given as 70% and the Degradation rates of CDK13 at 0.3 μM stood at 70%. At CDK12, the “Protein Degradation (%DMSO control, 0.3 μM) CDK12” value amounted to 50% and the Degradation rates of CDK12 at 0.3 μM worked out at 50%.
Take `N#Cc1ccc(N[C@H]2CC[C@H](N(C(=O)NCc3ccccc3)c3ccc(N4CCN(CC5CN(c6ccc7c(c6)C(=O)N(C6CCC(=O)NC6=O)C7=O)C5)CC4)cc3)CC2)nc1` (stereo partly drawn) [4d, 3-Benzyl-1-((1r,4r)-4-((5-cyanopyridin-2-yl)amino)cyclohexyl)-1-(4-(4-((1-(2-(2,6-dioxopiperidin-3-yl)-1,3-dioxoisoindolin-5-yl)azetidin-3-yl)methyl)piperazin-1-yl)phenyl)urea]: on CDK13, the “Protein Degradation (%DMSO control, 0.3 μM) CDK13” value is 71% and the Degradation rates of CDK13 at 0.3 μM came out at 71%. Besides, at CDK12, the “Protein Degradation (%DMSO control, 0.3 μM) CDK12” value is on record as 60% and the Degradation rates of CDK12 at 0.3 μM amounted to 60%.
With `N#Cc1ccc(N[C@H]2CC[C@H](N(C(=O)NCc3ccccc3)c3ccc(N4CCN(C5CCN(c6ccc7c(c6)C(=O)N(C6CCC(=O)NC6=O)C7=O)C5)CC4)cc3)CC2)nc1` (stereo partly drawn) [4l, 3-Benzyl-1-((1r,4r)-4-((5-cyanopyridin-2-yl)amino)cyclohexyl)-1-(4-(4-(1-(2-(2,6-dioxopiperidin-3-yl)-1,3-dioxoisoindolin-5-yl)pyrrolidin-3-yl)piperazin-1-yl)phenyl)urea], at CDK13, the “Protein Degradation (%DMSO control, 0.3 μM) CDK13” value was 40% and the Degradation rates of CDK13 at 0.3 μM was 40%. Besides, on CDK12, the “Protein Degradation (%DMSO control, 0.3 μM) CDK12” value turned out to be 17% and the Degradation rates of CDK12 at 0.3 μM is 17%.
Regarding `N#Cc1ccc(N[C@H]2CC[C@H](N(C(=O)NCc3ccccc3)c3ccc(N4CCC(CN5CCN(c6ccc7c(c6)C(=O)N(C6CCC(=O)NC6=O)C7=O)CC5)C4)cc3)CC2)nc1` (stereo partly drawn) [4i, 3-Benzyl-1-((1r,4r)-4-((5-cyanopyridin-2-yl)amino)cyclohexyl)-1-(4-(3-((4-(2-(2,6-dioxopiperidin-3-yl)-1,3-dioxoisoindolin-5-yl)piperazin-1-yl)methyl)pyrrolidin-1-yl)phenyl)urea], on CDK13, the “Protein Degradation (%DMSO control, 0.3 μM) CDK13” value is on record as 16% and the Degradation rates of CDK13 at 0.3 μM came out at 16%. Also, on CDK12, the “Protein Degradation (%DMSO control, 0.3 μM) CDK12” value is on record as 28% and the Degradation rates of CDK12 at 0.3 μM turned out to be 28%.
On to `N#Cc1ccc(N[C@H]2CC[C@H](N(C(=O)NCc3ccccc3)c3ccc(N4CCN(C(=O)C5CCN(c6ccc7c(c6)C(=O)N(C6CCC(=O)NC6=O)C7=O)CC5)CC4)cc3)CC2)nc1` (stereo partly drawn) [4c, 3-Benzyl-1-((1r,4r)-4-((5-cyanopyridin-2-yl)amino)cyclohexyl)-1-(4-(4-(1-(2-(2,6-dioxopiperidin-3-yl)-1,3-dioxoisoindolin-5-yl)piperidine-4-carbonyl)piperazin-1-yl)phenyl)urea], for which, on CDK13, the “Protein Degradation (%DMSO control, 0.3 μM) CDK13” value is 51% and the Degradation rates of CDK13 at 0.3 μM is 51%. Besides, on CDK12, the “Protein Degradation (%DMSO control, 0.3 μM) CDK12” value is recorded as 38% and the Degradation rates of CDK12 at 0.3 μM worked out at 38%.
In the case of `N#Cc1ccc(N[C@H]2CC[C@H](N(C(=O)NCc3ccccc3)c3ccc(N4CCC5(CC4)CCN(c4ccc6c(c4)C(=O)N(C4CCC(=O)NC4=O)C6=O)CC5)cc3)CC2)nc1` (stereo partly drawn) [4p, 3-Benzyl-1-((1r,4r)-4-((5-cyanopyridin-2-yl)amino)cyclohexyl)-1-(4-(9-(2-(2,6-dioxopiperidin-3-yl)-1,3-dioxoisoindolin-5-yl)-3,9-diazaspiro[5.5]undecan-3-yl)phenyl)urea], at CDK13, the “Protein Degradation (%DMSO control, 0.3 μM) CDK13” value was determined as 66% and the Degradation rates of CDK13 at 0.3 μM turned out to be 66%. Moreover, at CDK12, the “Protein Degradation (%DMSO control, 0.3 μM) CDK12” value is 42% and the Degradation rates of CDK12 at 0.3 μM worked out at 42%.
